Consider 9 molecules from patent US10590106B2, “Certain chemical entities, compositions, and methods” (NeuPharma, Inc., priority 2012, dated 2020).

Where two headings read alike, the source gives them in different places.

The target of one experiment is BRAF (Homo sapiens (Human), UniProt P15056). Kind of experiment: Inhibitory activity against kinase BRAF, Z'-LYTE method (Invitrogen). To be noted: 1 μM compound. The format is biochemical. The protocol:
Inhibitory activities Inhibitory activities of compounds against BRAF, and BRAF V600E were measured by Invitrogen using Z′-LYTE® Method as briefly described in the following. 4× Test compounds are dissolved in 1% DMSO. […] ATP solutions are diluted to a 4×ATP working concentration in Kinase Buffer (50 mM HEPES pH 7.5, 0.01% BRIJ-35, 10 mM MgCl2, 1 mM EGTA). Reaction started by 30-second shaking of mixture consisting of 2.5 μL 4× test compound, […] and 2.5 μL 4×ATP Solution on Bar-coded Corning, low volume NBS, black 384-well plate (Corning Cat. #3676). Then the mixture was incubated for 60-minute at room temperature for the kinase reaction, followed by addition of 5 μL of a 1:1024 dilution of development reagent A and 30-second plate shake. The mixture was then incubated for another 60-minute at room temperature for development reaction. Fluorescence was read by plate reader. IC50 was calculated by plotting the concentration of compound vs the percentage of inhibition in treated wells using GraphPad Prism 5.
Table 2 and 3 show % inhibition at 1 μM of several compounds of the invention against BRAF and BRAF V600E, respectively, using Z′-LYTE® method.

The next experiment deals with BRAF V600E (Homo sapiens (Human), UniProt P15056, V600E). Kind of experiment: Inhibitory activity against kinase BRAF V600E, Z'-LYTE method (Invitrogen). The format is biochemical. To be noted: for inhibition at 1 µM: read-out: Inhibition (% inhibition at 1 μM) against BRAF V600E. Put shortly:
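FRET-based Z′-LYTE peptide-phosphorylation assay in 50 mM HEPES pH 7.5, 0.01% BRIJ-35, 10 mM MgCl2, 1 mM EGTA; kinase reaction 60 min at room temperature, then 60 min development before fluorescence read. IC50 from concentration vs % inhibition; single-point % inhibition tested at 1 μM.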

Another experiment addresses KDR (VEGFR2) (Homo sapiens (Human), UniProt P35968). Kind of experiment: Inhibitory activity against kinase KDR, Z'-LYTE method (Invitrogen). The format is biochemical. Conditions: for inhibition at 1 µM: read-out: Inhibition (% inhibition at 1 μM) against KDR. The procedure, abridged:
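Human KDR (VEGFR2) kinase inhibition was measured with Invitrogen's Z′-LYTE® method. A 2× mixture of KDR and Tyr 01 peptide is made in 50 mM HEPES pH 7.5, 0.01% BRIJ-35, 10 mM MgCl2, 1 mM EGTA. Each 10 μL reaction holds 0.5-11.7 ng enzyme and 2 μM Tyr 01. It incubates for 1 hour, then 5 μL of Development Reagent B diluted 1:256 is added.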

A further experiment has as its system A375 cells. As to the kind of experiment: Inhibition of cancer cell growth, MTT or MTS assay, A375. To be noted: Homo sapiens, A-375; 72 h incubation. The format is cell-based. Put shortly: (§1)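 Cells in RPMI 1640 with 10% FBS were seeded at ~2000 (A375) or 4000 (A549, Colo205) per well, grown 24 h, then exposed to compound 72 h at 1% final DMSO. Read-out by MTT (570 nm) or MTS (490 nm). IC50 from concentration vs percent inhibition, triplicates.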
(In general: Tetrazolium assays rely on reduction of a dye to a coloured formazan, in cell work by metabolically active cells.)

The subject of the next experiment is A549 cells. Kind of experiment: Inhibition of cancer cell growth, MTT or MTS assay, A549. The format is cell-based. Conditions: Homo sapiens, 72 h incubation. The procedure, abridged: as §1

Chain of BRAF V600E (P15056 whole entry V600E): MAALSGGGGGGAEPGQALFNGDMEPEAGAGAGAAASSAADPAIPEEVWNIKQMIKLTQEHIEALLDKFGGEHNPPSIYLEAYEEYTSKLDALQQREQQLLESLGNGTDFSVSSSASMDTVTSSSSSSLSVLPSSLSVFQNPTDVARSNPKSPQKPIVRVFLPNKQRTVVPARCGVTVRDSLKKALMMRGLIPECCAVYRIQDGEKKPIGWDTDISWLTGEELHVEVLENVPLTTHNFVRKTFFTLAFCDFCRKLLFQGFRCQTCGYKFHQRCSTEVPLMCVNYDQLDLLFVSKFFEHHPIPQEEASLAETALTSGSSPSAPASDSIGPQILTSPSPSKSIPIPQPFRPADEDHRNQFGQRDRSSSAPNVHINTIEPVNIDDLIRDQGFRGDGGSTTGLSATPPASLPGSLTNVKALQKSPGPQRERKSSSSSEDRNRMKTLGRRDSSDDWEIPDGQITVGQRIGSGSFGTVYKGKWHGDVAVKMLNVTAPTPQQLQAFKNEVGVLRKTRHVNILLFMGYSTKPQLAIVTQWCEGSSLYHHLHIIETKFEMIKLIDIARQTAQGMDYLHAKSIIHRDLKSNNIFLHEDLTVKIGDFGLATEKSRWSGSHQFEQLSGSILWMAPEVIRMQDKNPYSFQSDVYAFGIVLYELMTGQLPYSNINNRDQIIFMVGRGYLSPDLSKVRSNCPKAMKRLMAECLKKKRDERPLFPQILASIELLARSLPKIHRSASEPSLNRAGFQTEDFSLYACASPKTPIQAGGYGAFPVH
Chain of BRAF (P15056 whole entry): as the sequence (P15056 whole entry V600E) above, with E600V counted along it
Chain of KDR (VEGFR2) (P35968 20-1356): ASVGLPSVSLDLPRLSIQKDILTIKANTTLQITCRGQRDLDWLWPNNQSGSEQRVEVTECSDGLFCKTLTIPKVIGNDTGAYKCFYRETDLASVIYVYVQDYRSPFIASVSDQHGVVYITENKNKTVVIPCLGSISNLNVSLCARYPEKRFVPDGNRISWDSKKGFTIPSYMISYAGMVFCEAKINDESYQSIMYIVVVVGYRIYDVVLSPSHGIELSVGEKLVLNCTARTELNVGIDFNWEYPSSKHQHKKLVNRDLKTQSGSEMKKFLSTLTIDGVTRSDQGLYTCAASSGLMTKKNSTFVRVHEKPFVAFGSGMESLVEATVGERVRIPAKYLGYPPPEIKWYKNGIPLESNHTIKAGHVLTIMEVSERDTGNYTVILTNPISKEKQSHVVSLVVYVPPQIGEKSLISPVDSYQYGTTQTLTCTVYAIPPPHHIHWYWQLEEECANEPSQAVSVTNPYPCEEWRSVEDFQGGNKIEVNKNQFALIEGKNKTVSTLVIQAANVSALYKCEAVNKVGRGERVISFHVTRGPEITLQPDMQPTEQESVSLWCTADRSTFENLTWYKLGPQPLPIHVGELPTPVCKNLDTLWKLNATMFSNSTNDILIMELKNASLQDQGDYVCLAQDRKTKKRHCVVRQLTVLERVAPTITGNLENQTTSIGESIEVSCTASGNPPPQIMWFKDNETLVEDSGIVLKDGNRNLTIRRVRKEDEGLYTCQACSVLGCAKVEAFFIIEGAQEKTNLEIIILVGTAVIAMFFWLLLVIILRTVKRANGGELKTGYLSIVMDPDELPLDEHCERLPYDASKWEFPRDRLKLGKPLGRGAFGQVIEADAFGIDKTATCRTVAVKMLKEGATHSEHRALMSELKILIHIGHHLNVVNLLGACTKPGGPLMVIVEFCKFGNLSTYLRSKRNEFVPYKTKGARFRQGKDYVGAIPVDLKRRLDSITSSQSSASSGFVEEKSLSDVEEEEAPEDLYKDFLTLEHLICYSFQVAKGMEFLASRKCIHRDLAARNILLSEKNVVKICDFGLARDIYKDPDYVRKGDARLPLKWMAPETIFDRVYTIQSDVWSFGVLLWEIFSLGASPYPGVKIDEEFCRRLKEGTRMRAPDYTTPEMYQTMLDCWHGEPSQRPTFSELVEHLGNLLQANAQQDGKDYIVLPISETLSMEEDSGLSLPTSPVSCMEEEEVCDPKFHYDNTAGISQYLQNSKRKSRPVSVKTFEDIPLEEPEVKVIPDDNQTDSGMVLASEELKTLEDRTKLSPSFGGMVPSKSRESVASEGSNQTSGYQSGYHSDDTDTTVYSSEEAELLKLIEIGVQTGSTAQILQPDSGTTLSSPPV

As to `N#Cc1ccc(NC(=O)Nc2cccc(Oc3ccc4nccnc4c3)c2)cc1C(F)(F)F` [Compound C073, 1-(4-cyano-3-(trifluoromethyl)phenyl)-3-(3-(quinoxalin-6-yloxy)phenyl)urea], the inhibition (in general, the share of the control response that was lost under treatment) at 1 µM against BRAF is less than 70%; on BRAF V600E, more than 89%; at KDR (VEGFR2) it was 70 to 89%. For the same molecule, the IC50 (as a rule, the midpoint of a concentration-inhibition curve) was more than 5 µM in the experiment with A375 cells and 2 to 5 µM in the experiment with A549 cells.

As to `O=C(Nc1ccc(Oc2ccc3nccnc3c2)cc1)Nc1cccc(C(F)(F)F)c1` [Compound C075, 1-(4-(quinoxalin-6-yloxy)phenyl)-3-(3-(trifluoromethyl)phenyl)urea], the inhibition at 1 µM was less than 70% against BRAF, more than 89% at BRAF V600E (1 μM compound) and 70 to 89% at KDR (VEGFR2) (1 μM compound). For the same molecule, the IC50 at BRAF V600E is more than 0.1 µM; on KDR (VEGFR2), more than 0.1 µM; in the experiment on A375 cells it was 1 to 5 µM; in the experiment with A549 cells, 2 to 5 µM.

Regarding `O=C(Nc1cccc(Oc2ccc3nccnc3c2)c1)c1cccc(C(F)(F)F)c1` [Compound C005, N-(3-(quinoxalin-6-yloxy)phenyl)-3-(trifluoromethyl)benzamide], the inhibition at 1 µM against BRAF, at BRAF V600E (1 μM compound) and on KDR (VEGFR2) (1 μM compound) was 70 to 89% in each case. Also, the IC50 was less than 0.1 µM at BRAF V600E, more than 0.1 µM at KDR (VEGFR2), more than 5 µM in the experiment on A375 cells and more than 5 µM in the experiment with A549 cells.

Take `O=C(Nc1cccc(F)c1)Nc1ccc(F)c(Oc2ccc3ncc(N4CCOCC4)nc3c2)c1` [Compound C034, 1-(4-fluoro-3-((3-morpholinoquinoxalin-6-yl)oxy)phenyl)-3-(3-fluorophenyl)urea]: the inhibition at 1 µM on BRAF is less than 70%; at BRAF V600E (1 μM compound) it was more than 89%; on KDR (VEGFR2) (1 μM compound), less than 70%. Further, the IC50 was less than 1 µM in the experiment on A375 cells and more than 5 µM with A549 cells.

Consider `O=C(Nc1ccc(F)c(Oc2ccc3ncc(N4CCNCC4)nc3c2)c1)Nc1ccc(Cl)c(C(F)(F)F)c1` [Compound C066, 1-(4-chloro-3-(trifluoromethyl)phenyl)-3-(4-fluoro-3-((3-(piperazin-1-yl)quinoxalin-6-yl)oxy)phenyl)urea], for which the inhibition at 1 µM at BRAF is less than 70%; at BRAF V600E (1 μM compound), more than 89%; on KDR (VEGFR2) (1 μM compound), more than 89%. The half-inhibitory concentration (IC50) in the experiment on A375 cells was 1 to 5 µM; in the experiment on A549 cells it was less than 2 µM.

`O=C(Nc1cc(F)cc(F)c1)Nc1ccc(F)c(Oc2ccc3ncc(N4CCOCC4)nc3c2)c1` [Compound C054, 1-(3,5-difluorophenyl)-3-(4-fluoro-3-((3-morpholinoquinoxalin-6-yl)oxy)phenyl)urea]: the inhibition at 1 µM was less than 70% against BRAF, more than 89% at BRAF V600E (1 μM compound) and less than 70% on KDR (VEGFR2) (1 μM compound). The half-maximal inhibitory concentration (IC50) in the experiment on A375 cells was 1 to 5 µM; with A549 cells, more than 5 µM.

For the molecule `O=C(Nc1ccc(Cl)cc1)Nc1ccc(Oc2ccc3ncc(N4CCNCC4)nc3c2)cc1` [Compound C092, 1-(4-chlorophenyl)-3-(4-((3-(piperazin-1-yl)quinoxalin-6-yl)oxy)phenyl)urea], the results for the inhibition at 1 µM on BRAF, on BRAF V600E (1 μM compound) and on KDR (VEGFR2) (1 μM compound) were more than 89%, more than 89% and 70 to 89%, respectively. Moreover, the 50% inhibitory concentration (IC50) with A375 cells was more than 5 µM; in the experiment on A549 cells it was 2 to 5 µM.

In the case of `O=C(Nc1ccc(F)c(F)c1)Nc1ccc(F)c(Oc2ccc3ncc(N4CCOCC4)nc3c2)c1` [Compound C052, 1-(3,4-difluorophenyl)-3-(4-fluoro-3-((3-morpholinoquinoxalin-6-yl)oxy)phenyl)urea], the inhibition at 1 µM is 70 to 89% against BRAF, more than 89% on BRAF V600E (1 μM compound) and 70 to 89% on KDR (VEGFR2) (1 μM compound). The molecule also gave a half-inhibitory concentration (IC50) with A375 cells of 1 to 5 µM.

`O=C(Nc1ccc(Oc2ccc3nccnc3c2)cc1)Nc1cccc(F)c1` [Compound C074, 1-(3-fluorophenyl)-3-(4-(quinoxalin-6-yloxy)phenyl)urea]: the inhibition at 1 µM at BRAF was less than 70%; on BRAF V600E (1 μM compound), 70 to 89%. For the same molecule, the values for the IC50 with A375 cells and in the experiment with A549 cells were 1 to 5 µM and 2 to 5 µM, respectively.
